“And” between values parts separate entries of the source, which are not always exact repeats. Equal entries are not always repeated. Where two headings read alike, the source gives them in different places.
Experiments:
Assay in all cases: Postemergence herbicidal activity, greenhouse trial (visual injury 0-100%)
Type in all cases: in vivo
[1] = test system: thistle (Cirsium arvense, CIRAR)
Method in brief: (§1)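 Greenhouse plants at the 2nd–3rd true-leaf stage (14 h photoperiod, ~23/22 °C) were track-sprayed at 187 L/ha with acetone/DMSO stocks diluted in 1.5% v/v crop oil concentrate. Rates were g ae/ha for component (a) and g ai/ha for (b). Injury versus solvent-blank controls was rated visually at 20–22 d, with Colby's equation giving expected mixture effects.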

[2] = test system: wild buckwheat (Polygonum convolvulus, POLCO); details: Fallopia convolvulus, post-emergence, read-out: % visual injury Obs
Method in brief: as §1

[3] = test system: kochia (Kochia scoparia, KCHSC); details: Bassia scoparia, post-emergence, read-out: % visual injury Obs
Method in brief: as §1

[4] = test system: wild pansy (Viola tricolor, VIOTR); details: Viola tricolor, post-emergence, read-out: % visual injury Obs
Method in brief: as §1

[5] = test system: nutsedge (Cyperus esculentus, CYPES)
Method in brief: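 Greenhouse-grown plants at the second to third true leaf stage were sprayed with two-way mixtures in 1.5% v/v Agri-dex crop oil concentrate at 187 L/ha; rates in g ae/ha for component (a) and g ai/ha for component (b). Injury scored visually 0–100% versus solvent-blank controls after 20–22 d, with expected mixture effects from Colby's equation.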

[6] = test system: velvetleaf (Abutilon theophrasti, ABUTH)

Nc1c(F)c(-c2ccc3cc[nH]c3c2F)nc(C(=O)O)c1Cl [Compound 1]
% visual injury Obs ([1]; CIRAR, Compound 1 5 g ae/ha): 10% | pest or weed control at 5 g/ha ([1]; Cirsium arvense, post-emergence, 5 g ae/ha, read-out: % visual injury Obs): 10% | pest or weed control at 5 g/ha ([2]; 5 g ae/ha): 70% | pest or weed control at 5 g/ha ([2]; POLCO, Compound 1 5 g ae/ha): 65% | pest or weed control at 5 g/ha ([3]; 5 g ae/ha): 65% | pest or weed control at 10 g/ha ([3]; 10 g ae/ha): 60% | pest or weed control at 5 g/ha ([3]; KCHSC, Compound 1 5 g ae/ha): 60% | pest or weed control at 10 g/ha ([3]; KCHSC, Compound 1 10 g ae/ha): 60% | pest or weed control at 10 g/ha ([4]; 10 g ae/ha): 10% | pest or weed control at 10 g/ha ([4]; VIOTR, Compound 1 10 g ae/ha): 10% | % visual injury Obs ([5]; CYPES, Compound 1 5 g ae/ha): 10% | pest or weed control at 5 g/ha ([5]; Cyperus, post-emergence, 5 g ae/ha, read-out: % visual injury Obs): 10% | % visual injury Obs ([6]; 5 g ae/ha): 50% and 70% | % visual injury Obs ([6]; 10 g ae/ha): 60% | % visual injury Obs ([6]; ABUTH, Compound 1 5 g ae/ha): 70%

CCCOc1nn(C(=O)NS(=O)(=O)c2ccccc2C(=O)OC)c(=O)n1C [Propoxycarbazone, propoxycarbazone]
pest or weed control at […] ([1]; Cirsium arvense, post-emergence, 7.5 g ai/ha, read-out: % visual injury Obs): 75% | pest or weed control at […] ([2]; 7.5 g ai/ha): 10% | pest or weed control at […] ([3]; 7.5 g ai/ha): 30% | pest or weed control at […] ([4]; 7.5 g ai/ha): 20% | pest or weed control at […] ([5]; Cyperus, post-emergence, 7.5 g ai/ha, read-out: % visual injury Obs): 75% | % visual injury Obs ([6]; 7.5 g ai/ha): 50%

Reference: patent publication US20190364896A1, “SYNERGISTIC WEED CONTROL FROM APPLICATIONS OF PYRIDINE CARBOXYLIC ACID HERBICIDES AND ALS INHIBITORS” (Dow AgroSciences LLC, priority 2014, published 2019)
